Measurements from patent US10662169B2, “Catechol derivative and pharmaceutical composition comprising the same” (AUTOPHAGYSCIENCES INC., priority 2015, dated 2020).

Experiments:
[1] = test system: LC3-II in primary hepatocytes; experiment: Autophagy activation: LC3-II Western immunoblotting in primary hepatocytes, ischemia-reperfusion model; assay type: cell-based, C57BL/6 mice; settings: FIG. 1, FIG. 2
Experimental: Primary hepatocyte was isolated from male C57BL/6 mice by a collagenase perfusion method which is a known method (Gastroenterology 2011, 141, 2188). Survival rate of the isolated cells was measured by trypan blue exclusion method. Autophagy was induced by ischemia-reperfusion method (Gastroenterology 2011, 141, 2188).
Specifically, in order to induce ischemia, hepatocytes were incubated at 37° C. in Krebs-Ringer-HEPES (KRH0) buffer (pH 6.2) in an anaerobic chamber for 2 hours. The respective hepatocytes were treated with DMSO, the compound prepared in Examples described above, or Rapamycin as a control substance, and then KRH buffer solution at pH 7.4 was treated under aerobic conditions for 1 hour to induce reperfusion. […] The amount of protein was measured with bovine serum albumin as a protein standard using Bio-Rad Protein Assay Kit (Cat No. 500-0002). […] Then, bands were measured using ECL (Enhanced Chemiluminescence, Thermo Scientific, Cat No. 34080). […]
The amount of LC3-II increased by the compound treatment was quantified by measuring the band density, and then compared with the amount of LC3-II increased by the treatment of Rapamycin used as a control substance, and the comparison values are shown in Table 1.

mTOR = mTOR enzyme activity: p-mTOR (Ser 2448) Western immunoblotting in hepatocyte ischemia-reperfusion model; assay type: cell-based, C57BL/6 mice; settings: hepatocytes, FIG. 3
Experimental: Western immunoblotting was performed using the cell-disrupted liquid obtained in Experimental Example 1. The PVDF membrane obtained from electrophoresis and electroblotting was placed in a TBS-tween solution containing an antibody against mTOR or p-mTOR (Ser 2448) proteins (Cell Signaling), allowed to stand at 4° C. for 12 hours, and then labeled with a secondary antibody labeled with HRP (Horseradish Peroxidase, Sigma Co., Cat No. P0889). Then, bands were measured using ECL (Enhanced Chemiluminescence, Thermo Scientific, Cat No. 34080).
The measurement results are shown in FIG. 3. mTOR is known to be one of the major proteins regulating autophagy. mTOR serves to inhibit autophagy at a quiescent state, whereas phosphorylation at serine 2448-position inhibits the function of mTOR, resulting in activation of autophagy.

[2] = test system: acute liver injury induced by carbon tetrachloride; experiment: Model of acute liver injury induced by carbon tetrachloride; assay type: in vivo, C57BL/6 mice; settings: 50 mg/kg orally three times every 12 hours, then CCl4 5 mL/kg i.p.; autopsy 24 hours later; FIG. 4
Experimental: Attempts were made to confirm the inhibitory effect of autophagy activator on liver injury in an animal model of induced liver fibrosis due to acute liver injury. In order to confirm the effect of inhibiting acute liver injury, carbon tetrachloride (CCl4) was administered to C57BL/6 mice to induce acute liver injury, and then the compound according to the present invention was administered. It was then confirmed whether liver injuries were inhibited. Five-week-old female C57BL/6 mice were introduced and acclimated for one week, and then divided into six groups respectively; a normal control group, a group to which carbon tetrachloride was administered, and groups to which the compounds according to the present invention (Examples 1, 2, 5, and 7) were administered. Each of the compounds according to the present invention was dissolved in corn oil and administered orally three times at a dose of 50 mg/kg (body weight) every 12 hours. 30 Minutes after final oral administration, carbon tetrachloride was intraperitoneally administered at a dose of 5 mL/kg (body weight) and then autopsied 24 hours later top remove a sample of liver tissue under autopsy and fix it, thereby preparing a tissue specimen. After preparation of tissue specimen slides, H & E staining was performed and liver injuries were confirmed with a microscope.

[3] = test system: liver fibrosis induced by carbon tetrachloride; experiment: Model of liver fibrosis induced by carbon tetrachloride (chronic); assay type: in vivo, C57BL/6 mice; settings: for liver fibrosis, Masson's Trichrome staining: CCl4 0.8 ml/kg i.p., FIG. 10
Experimental: In order to confirm the effect of inhibiting liver fibrosis caused by chronic liver injury, carbon tetrachloride was administered to C57BL/6 mice to induce chronic liver injury, thereby inducing liver fibrosis, and then the compounds according to the present invention were administered. It was then confirmed whether chronic liver injuries were inhibited. Five-week-old female C57BL/6 mice were introduced and acclimated for one week, and then divided into six groups respectively; a normal control group, a group to which carbon tetrachloride was administered, and groups to which the compounds according to the present invention (Examples 1 and 5) were administered. Carbon tetrachloride was dissolved in corn oil and administered intraperitoneally at a dose of 0.8 ml/kg (body weight) twice a day, for a total of 8 days. Twenty-four hours after the final oral administration, an autopsy was performed to remove a sample of liver tissue and fix it, thus preparing a tissue specimen. After preparation of tissue specimen slides, H & E staining was performed, and liver tissue injury as well as inflammatory cell infiltration in liver tissue were confirmed by microscopy. In addition, Masson's Trichrome staining was performed, and collagen deposition in the liver tissue was confirmed by microscope.

[4] = test system: liver fibrosis induced by bile duct ligation; experiment: Model of liver fibrosis induced by bile duct ligation (BDL); assay type: in vivo, Sprague Dawley (SD) rats; settings: BDL rats; 12.5, 25 and 50 mg/kg orally once a day for 14 days; FIG. 13
Experimental: In order to confirm the effect of inhibiting liver fibrosis caused by chronic liver injury, bile duct ligation (BDL) was performed in Sprague Dawley (SD) rats to induce chronic liver injury, thereby inducing liver fibrosis, and then the compounds according to the present invention were administered. It was then confirmed whether chronic liver injuries were inhibited.
Seven-week-old female SD rats were introduced and acclimated for one week, and then divided into five groups respectively; a control group, a bile duct ligation surgery group, and groups to which the compound according to the present invention (Example 15) was administered at three doses (12.5, 25 and 50 mg/kg body weight). In the control group, the bile duct was not exposed or ligated after laparotomy, and the other groups performed bile duct ligation surgery. One week after bile duct ligation, the compound according to the present invention (Example 1) was dissolved in corn oil and administered orally for each dose once a day for a total of 14 days. […] In addition, a part of the removed liver (10 mg) was decomposed to perform a quantitative experiment of hydroxyproline which is a major component of collagen, and the amount of collagen deposited was quantified, thereby confirming the effects of the compound according to the present invention.

[5] = test system: liver fibrosis induced by thioacetamide; experiment: Model of liver fibrosis induced by thioacetamide (TAA); assay type: in vivo, C57BL/6 mice; settings: TAA 200 mg/kg i.p. three times a week for 6 weeks; compound 50 mg/kg orally once a day for 8 days; FIG. 7
Experimental: In order to confirm the effect of inhibiting liver fibrosis caused by chronic liver injury, thioacetamide (TAA) was administered to C57BL/6 mice to induce chronic liver injury, thereby inducing liver fibrosis, and then the compounds according to the present invention were administered. It was then confirmed whether chronic liver injuries were inhibited. Five-week-old female C57BL/6 mice were introduced and acclimated for one week, and then divided into six groups respectively; a normal control group, a group to which thioacetamide was administered, and groups to which the compounds according to the present invention (Examples 2, 5 and 7) were administered. Thioacetamide was dissolved in phosphate-buffered physiological saline and administered intraperitoneally at a dose of 200 mg/kg (body weight) three times a week, for a total of 6 weeks. Three compounds according to the present invention was dissolved in corn oil […] and administered orally at a dose of 50 mg/kg (body weight) once a day for a total of 8 days. Twenty-four hours after the final oral administration, an autopsy was performed to remove a sample of liver tissue and fix it, thus preparing a tissue specimen. After preparation of tissue specimen slides. H & E staining was performed, and liver tissue injury as well as inflammatory cell infiltration in liver tissue were confirmed by microscopy. […]

SMILES	increase in LC3-II (autophagy induction), Western immunoblotting [1]	phosphorylation of mTOR at serine 2448 position (mTOR)	liver injury, H & E staining [2]	liver fibrosis, Masson's Trichrome staining [3]	collagen deposition, Example 1 compared with Example 5 ([3]; CCl4 fibrosis model, Masson's Trichrome staining)	collagen deposition, quantitative experiment of hydroxyproline in liver tissue [4]	liver fibrosis (collagen deposition), Masson's Trichrome staining [5]
COc1ccc(-c2ccc(C(=O)NC(C)C)s2)cc1OC [Example 1, 5-(3,4-dimethoxyphenyl)-N-isopropylthiophene-2-carboxamide]	significant increase in autophagy induction	significantly inhibited	liver injury was clearly recovered	fibrosis was alleviated	collagen deposition was less	the smaller the collagen deposition	–
CC(C)NC(=O)c1ccc(-c2ccc3c(c2)OCO3)s1 [Example 2, 5-(benzo[d][1,3]dioxol-5-yl)-N-isopropylthiophene-2-carboxamide]	–	–	recovery effect of liver injury was relatively small	–	–	–	fibrosis was clearly alleviated
CC(C)CNC(=O)c1ccc(-c2ccc3c(c2)OCO3)s1 [Example 5, 5-(benzo[d][1,3]dioxol-5-yl)-N-isobutylthiophene-2-carboxamide]	significant increase in autophagy induction	–	liver injury was clearly recovered	fibrosis was alleviated	–	–	fibrosis was clearly alleviated
COc1ccc(-c2ccc(C(=O)Nc3ccccc3)s2)cc1OC [Example 7, 5-(3,4-dimethoxyphenyl)-N-phenylthiophene-2-carboxamide]	–	–	recovery effect of liver injury was relatively small	–	–	–	–
